{"source": "paper PMC10721786", "about": "“Development of a potent benzonitrile-based inhibitor of glutaminyl-peptide cyclotransferase-like protein (QPCTL) with antitumor efficacy” (Signal Transduction and Targeted Therapy, 2023)", "key": {"pGlu-CD47": {"test_system": "pGlu-CD47", "experiment": "hCD47-CC2C6 binding to various cancer cells (H929, HCT116, Huh7, SKOV3, SU-DHL-8, T24, H1299, MCF-7)", "format": "cell-based, human", "details": "500 nM, 48 h", "protocol": "Binding to cell surface CD47 was assessed by staining cells with fluorochrome-labeled antibodies clone CC2C6 (BioLegend, Cat. # 323102) and B6H12 (Abcam, Cat. # ab134485) to human CD47 at a dilution of 1:100 in PBS containing 1% FBS (FACS buffer) for 30 min on ice, while protected from light. SIRPα binding to CD47 was assessed by incubating cells with PE labeled recombinant human SIRPα/ CD172α Protein, Fc tag (ACRO Biosystems, Cat. # SIA-HP252) or PE labeled mouse SIRPα Protein, His tag (ACRO Biosystems, Cat. # SIA-MP2H6) for 1 hour on ice, while protected from light."}, "senescent cells": {"test_system": "senescent cells", "experiment": "Efferocytosis of apoptotic Jurkat cells by macrophages after co-culture with senescent cells", "format": "cell-based, mouse", "details": "pretreatment, 4 days, Fig. S7", "protocol": "Apoptotic corpse generation. Jurkat cells were cultured in a T25 flask and apoptotic corpses were inducted by exposure to 5 μM camptothecin (Tsbiochem, CAT. # t2764) for 4 hours. Apoptosis induction was confirmed by apoptoic kit (Beyotime Biotechnology, Cat. # C1062M) through flow cytometry.\nSenescence induction. B16F10 Cells were plated (96-well plate: 2000 cells/well) and rested over night before exposure to 10 μM cisplatin (APExBIO, Cat. # A8321). Cisplatin exposed cells were subsequently cultured for 4 or 7 days (without media change) and senescent cells were evaluated by β-Galactosidase staining using a SA-β-Gal staining Kit (Solarbio, Cat. # G1580-100T) according to the manufacturer’s instructions. Senescent cells were identified as blue stained cells under light microscopy.\nEfferocytosis after co-culture. Senescent cells were plated in 96-well plates (2000 cells/well) and inducted as described before. QPCTL inhibitors were added every other day to the cells. For co-culture conditions BMDMs were added to the senescent cells. Senescent cells and macrophages were co-cultured for 16 hours. […] Following removal of unbound corpses by washing three times with PBS, macrophages were marked with APC-labeled anti-F4/80, and the co-culture was analyzed by flow cytometry. Efferocytosis was calculated as the percentage of CFSE^+F4/80^+ cells among F4/80^+ cells."}, "[1]": {"experiment": "In vivo toxicity in mice (blood routine, serum biochemistry, HE histology)", "parameters": "species or system mouse", "protocol": "Briefly, male mice were implanted subcutaneously with 5 x 10^5 B16F10 cells resuspended in 100 μL of DMEM on Day 0. Anti-PD-1 antibody or mouse IgG2a isotype control was dosed at 80 µg per mouse intraperitoneally starting on day 6 after tumor implantation, followed by a once-a-week regimen. QPCTL inhibitors was intraperitoneally administered at 25 mg/kg once a day since day 6. Tumors were measured every three days, and mice were sacrificed on day 15. Mouse organs and blood were collected for blood routine, blood serum biochemistry examination and histological evaluation.\nBlood routine and blood serum biochemistry examination of mice. Whole blood was collected in EDTA anticoagulant tubes for blood routine test and heparin sodium tubes for blood serum biochemistry examination. Tubes were gently inverted several times to thoroughly mix the blood and anticoagulant. The routine blood test was tested by Automatic Hematology Analyzer (TEK8500H4-0502, TECOM SCIENCE, China). Blood serum was obtained by centrifugation at 4℃ at 4000 rpm for 10 minutes. Serum creatinine (CR) was determined by CR kit (PUREBIO, Cat. # CR01), urea nitrogen (BUN) was determined by BUN kit (PUREBIO, Cat. # URE01), alanine aminotransferase (ALT) was determined by ALT kit (PUREBIO, Cat. # ALT01) and […] was determined by AST kit (PUREBIO, Cat. # AST01) according to the manufacturer’s instructions. […]"}}}
{"smiles": "Cn1cncc1C1CCN(c2c(C#N)cccc2-c2ccc(F)nc2)CC1", "note": "[QP5038]", "values": [{"measurement": "CD47 pyroglutamation in various types of cancer cells", "setting": "pGlu-CD47", "value": "significantly attenuated"}, {"measurement": "inhibitory effect of senescent cells on macrophage-mediated phagocytosis of apoptotic cells", "setting": "senescent cells", "value": "could block the inhibitory effect"}, {"measurement": "organ damage (HE staining)", "setting": "[1]; C57B/L6 mice, 25 mg/kg daily for 15 days, Fig. S10", "value": "would not cause"}, {"measurement": "abnormal blood composition", "setting": "[1]; mice, 25 mg/kg daily, Fig. S11", "value": "would not cause"}]}
